Assay results published in patent US11226340B2, “Therapeutically triggering an innate immune response in a target tissue” (priority 2016, dated 2022).

What was measured:
B16 melanoma [1] = experiment: STING agonist combined with SSI in B16 melanoma lung model; type: in vivo, mouse; details: day +14
Description: The anti-tumour efficacy of QBKPN SSI in combination with the STING agonist 2′2′-cGMAP (inVivoGen) was evidenced in C57Bl/6 mice, as follows. On ˜day −31, mice were infected with K. pneumoniae (2.5×10^5 cells/mouse) by oropharyngeal instillation after being anaesthetized with isofluorane, then rested. Within 5-7 days, all mice were fully recovered from K. pneumonia challenge. Starting on day −10, some mice were S.C. injected with QBKPN SSI; mice were injected every other day from Day −10 to day +12. Injections were performed in rotating sites at a dose of 0.03 ml of a 5.0 OD suspension. On days −10, −6, and −4, some mice were also treated with STING agonist (SC injection of 10 μg/mouse in 20 μl of saline), either co-mixed with SSI or s.c. in a distal site (nape). On Day 0, mice were challenged with B16 melanoma by tail-vein (I.V.) injection of singlecell suspensions of tumour cells (2.0×10^5 cells/mouse). On day +14, plasma was collected for ELISA, then mice were sacrificed and visual metastases counted and recorded. Serum was collected into heparin-containing tubes, then centrifuged to remove cells. ELISA (RND Systems DuoSet DY485, limit of detection […]) was performed per the manufacturer's protocol. […] Statistical differences were evaluated by unpaired T test (GraphPad PRISM).

B16 melanoma [2] = experiment: Cancer antigen (gp100) potentiation in B16 melanoma lung model; type: in vivo, mouse; details: K. pneumoniae-pre-exposed mice; day +14

Row | Molecule | tumour burden (tumour nodules in the lungs) (B16 melanoma [1]; K. pneumoniae-pre-exposed mice) | circulating (plasma) levels of IFN-γ (B16 melanoma [1]) | tumour burden (metastatic-like B16 melanoma in the lungs) (B16 melanoma [2])
1 | Nc1nc2c(ncn2[C@@H]2O[C@@H]3COP(=O)(O)O[C@@H]4[C@H](O)C(COP(=O)(O)O[C@@H]2C3O)O[C@H]4n2cnc3c(N)ncnc32)c(=O)[nH]1 (stereo partly drawn) [STING agonist, 2′2′-cGMAP] | reduced tumour burden (p=0.0038) | enhanced circulating levels of IFN-γ | –
2 | KVPRNQDWL [gp100, melanoma-specific antigen gp100 25-33 peptide] | – | – | no significant effect
